Tested on: male C57Bl/10 mice
Test: Morris water maze task (latency to locate hidden platform)
Assay type: in vivo
Conditions: Dose-Response (IP), intraperitoneal, dissolved in saline, 30 minutes prior to testing
Excerpt: The test animals were male C57Bl/10 mice, weighing 17-21 grams at the time of testing. Mice were housed in groups of 10 and had ad lib access to food and water. Mice of this strain appear to be deficient in learning the water maze task and are therefore suitable for use in drug evaluation.[Symons, J.P., Davis, R.E., and Marriott J.G. Life Sciences, 1988, 42, 375-383.] The Morris water maze task requires an animal to attend to spatial cues in order to locate the position of a hidden platform submerged underwater. [Morris, B. G. Learning and Motivation , 1981, 12, 239-260, and Symons, J.P., Davis, R.E., and Marriott J.G. Life Sciences, 1988, 42, 375-383.] The maze consisted of a 60 cm x 60 cm x 60 cm transparent plexiglas chamber filled to a depth of 30 cm, leaving 30 cm of wall extended up from the water surface. The water was made opaque by the addition of powdered milk. The water temperature was maintained at 20 °C. Both distal cues (i.e., standard room objects) and proximal cues (that is, 20 cm x 22 cm unique black and white patterns pasted to the center of each of the four walls of the maze) were used. The submerged platform, 8 x 8 cm, 1 cm below the water's surface was positioned near one of the four corners of the maze. […] The time required for each animal to locate the platform on each of the four trials was recorded (latency). […]

SMILES: NC(=O)[C@@H]1CCCN1C(=O)[C@H](Cc1c[nH]cn1)NC(=O)[C@@H]1CCC(=O)N1 [TRH, pGlu-His-ProNH₂]
- Active Dose Range: 0.1 to 0.3 mg/kg

Reference: patent EP0381959B1, “Cyclohexaneacetamide derivatives” (F. HOFFMANN-LA ROCHE AG, priority 1989, dated 1990)
